Test results: patent publication US6646006B2, “Enhancement of vascular function by modulation of endogenous nitric oxide production or activity” (The Board of Trustees of the Leland Stanford Junior …, priority 1993, dated 2003)
“Also recorded” adds a separate entry of the source.

What was measured:
[1] = system: hypercholesterolemic rabbits; assay: Balloon angioplasty of the iliac artery in hypercholesterolemic rabbits, oral arginine; assay type: in vivo, rabbit
Text: Methods. Twenty-eight New Zealand white rabbits were randomized into one of three dietary groups and received either normal rabbit chow, 0.5% cholesterol diet, or 0.5% cholesterol diet plus L-arginine hydrochloride (2.25% W/V) in the drinking water. After six weeks of dietary intervention, left iliac artery of each animal was subjected to a balloon angioplasty. Four weeks later, the iliac arteries were harvested for vascular reactivity studies and immunohistochemistry.

[2] = system: forearm resistance vessels; assay: Forearm blood flow response to methacholine (plethysmography) after intravenous L-arginine; assay type: in vivo, human
Text: The control subject population in this study included 11 normal volunteers comprising (10 males and 1 female). Their ages ranged from 31 to 49 and averaged 39±2 yr. There were 14 patients with hypercholesterolemia. Hypercholesterolemia was defined as a serum LDL cholesterol level greater than the 75th percentile adjusted for age and sex. These individuals included 11 males and 3 females whose ages ranged from 22 to 48 and averaged 38±2 years.
Under local anesthesia and sterile conditions, a polyethylene catheter was inserted into a brachial artery of each subject for determination of blood pressure and for infusion of drugs. A separate polyethylene catheter was inserted into the antecubital vein for infusion of L-arginine. Bilateral forearm blood flow was determined by venous occlusion strain gauge plethysmography, using calibrated mercury-in-silastic strain gauges, and expressed as ml/100 ml tissue per min.
To assess NO-dependent vasodilation, methacholine chloride (which induces the endothelium to release NO) was administered via the brachial artery. Forearm blood flow was measured during infusion of methacholine chloride at concentrations of 0.3, 3, and 10 μg/min each for 3 min.
After completion of the methacholine chloride infusions, all normal subjects and 10 individuals with hypercholesterolemia were given L-arginine intravenously over 30 minutes and then the methacholine infusions were repeated. D-arginine, the enantiomer of L-arginine, is not a precursor of NO. Thus, to ensure that any observed effects of L-arginine were due to its contribution to the synthesis of NO and not just secondary to its physiochemical properties, five individuals with hypercholesterolemia received D-arginine intravenously.

monocytes = assay: Functional binding assay: rabbit blood mononuclear cells to bEnd3 endothelial cells; assay type: in vivo; details: Arg vs vehicle-treated Chol animals
Text: To determine if oral arginine supplementation affects monocyte adherence, blood was collected from rabbits fed normal chow (=6) a 1% cholesterol diet (=6), or a 1% cholesterol diet supplemented with L-arginine (=6), as described above. Mononuclear cells were purified from blood by Ficoll-paque density gradient centrifugation. In these preliminary studies, adhesion was examined of blood leukocytes to a transformed endothelial cell line, bEnd3 (mouse brain-derived polyoma middle T antigen transformed endothelial cells). The Bend3 cells display the morphology of endothelial cells, and like human endothelial cells are capable of uptake of acetylated low-density lipoprotein and express adhesion molecules in a cytokine-regulatable fashion. Cultured cells were grown to confluence in 0.5 cm^2 Lab-Tek chamber slides (MilesScientific) and treated with control medium or with LPS (1 mg/ml) or TNFα (25 U/ml) for 18 hours. Cultures were washed with fresh assay buffer, and low, medium, or high concentrations of leukocytes (0.75, 1.5, or 3×10^5 cells/ml, respectively) were added per well. Following a 30-minute incubation on a rocking platform at room temperature to allow binding, the slides were inverted and immersed in buffer containing 2% (v/v) glutaraldehyde, such that non-adherent cells were lost and adherent cells were fixed to the monolayer. […]

N=C(N)NCCC[C@H](N)C(=O)O [L-arginine] was tested, and the “intimal thickening in injured vessels” value ([1]; four weeks after balloon angioplasty) was “reduced”, the “accumulation of macrophages in the lesion” value ([1]; four weeks after balloon injury, ARG vs CHOL) was “substantially inhibited; also recorded: significantly reduced” and the “endothelium-derived NO activity (bioassay)” value ([1]; iliac artery, hypercholesterolemic animals) was “partially restored”. For the same molecule, the “augmentation of the vasodilation to methacholine chloride” value ([2]; hypercholesterolemic subjects, intravenous over 30 minutes) was 25%, the “complications or side-effects of the infusions” value ([2]; intravenous) was “no complications or side-effects” and the “vasodilation during methacholine chloride” value ([2]; normal subjects, intravenous over 30 minutes) was “did not potentiate”. For the same molecule, the “adherence of monocytes to bEnd3 cells” value (monocytes) was “much less adherent”.
